Measured values taken from patent publication US20240174723A1, “STAPLED ANTIMICROBIAL PEPTIDES (STAMPS) AND USES THEREOF” (Lytica Therapeutics, Inc., priority 2021, published 2024).
Converted amounts (≈) assume the structure as drawn. Positions of bridges follow the written chain, without caps; N, C: chain ends. Non-standard residues stand in square brackets, D forms with d. Residues, ends and D or L forms follow the SMILES beside them. Phe(4-tBu) = CC(C)(C)c1ccc(C[C@H](N)C(=O)O)cc1; S5 = C=CCCC[C@](C)(N)C(=O)O

Legend:
[1] = system: S. aureus; type: cell-based, Staphylococcus aureus
Procedure, shortened: (§1)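 StAMP peptides were tested by CLSI-adapted broth microdilution in MHB or cation-adjusted MHB II, final inoculum 5×10^5 CFU/ml from log-phase cultures. After 20-24 h at 37° C, MIC was taken as the lowest peptide concentration without visible growth.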

[2] = system: E. coli; type: cell-based, Escherichia coli
Procedure, shortened: as §1

[3] = system: P. aeruginosa; type: cell-based, Pseudomonas aeruginosa
Procedure, shortened: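 Broth microdilution adapted from CLSI in MHB or cation-adjusted MHB; log-phase P. aeruginosa at 5×10^5 CFU/ml final with serially diluted stapled peptides. Incubated 20-24 h at 37 °C; MIC is the lowest concentration without visible growth.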

[4] = in vitro; type: cell-based; conditions: human, Inhibitory Concentration at 50% Cytotoxicity (IC50) Human Liver Cells (HepG2)
Procedure, shortened: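 HepG2 cells in EMEM with 10% FBS, allowed 4 h to attach, then exposed to serial dilutions of StAMPs (from a 5 mg/mL water stock) or vehicle. After 48 h at 37 °C, viability read by CellTiter-Glo luminescence.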

[5] = system: A. baumannii; type: cell-based, Acinetobacter baumannii
Procedure, shortened: as §1

[6] = in vitro; type: cell-based; conditions: human
Procedure, shortened: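 RPTEC or HepG2 cells plated overnight, given fresh media, then serial StAMP dilutions (from 5 mg/mL water stock) or vehicle at 37 °C. Cytotoxicity read as LDH release into media, absorbance 490 nm; renal toxicity after 90 min, liver toxicity after 48 h incubation.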

[7] = system: K. pneumoniae; type: cell-based, Klebsiella pneumoniae
Procedure, shortened: as §1

Row | SMILES | Minimum Inhibitory Concentration (MIC) S. aureus [1] | Minimum Inhibitory Concentration (MIC) E. coli [2] | Minimum Inhibitory Concentration (MIC) P. aeruginosa [3] | IC50 at 48 hours [4] | Minimum Inhibitory Concentration (MIC) A. baumannii [5] | IC50 at 90 min [6] | Minimum Inhibitory Concentration (MIC) K. pneumoniae [7]
1 | CC(C)[C@@H]1NC(=O)[C@@](C)(NC(=O)[C@H](C)NC(=O)[C@H](CCCCN)NC(=O)CNC(=O)[C@H](Cc2ccccc2)NC(=O)[C@H](CCCCN)NC(=O)[C@H](CCCCN)NC(=O)[C@H](CCCCN)NC(=O)[C@H](CO)NC(=O)[C@H](Cc2c[nH]cn2)NC(=O)[C@]2(C)CCCC=CCCC[C@](C)(NC(=O)CN)C(=O)NCC(=O)N[C@@H](CCCCN)C(=O)N[C@@H](Cc3ccccc3)C(=O)N2)CCCC=CCCC[C@@](C)(C(=O)N[C@@H](C)C(=O)N[C@@H](CCCCN)C(=O)N[C@@H](CCCCN)C(N)=O)NC(=O)[C@H](CC(=O)O)NC(=O)CNC1=O [compound 16] (H-G[S5]GKF[S5]HSKKKFGKA[S5]VGD[S5]AKK-NH2; staple 2-6, 16-20) | >64 µg/mL | 12 µg/mL | 16 µg/mL | > 200 µg/mL | 4 µg/mL | > 200 µg/mL | >64 µg/mL
2 | CC(C)[C@@H]1NC(=O)[C@@](C)(NC(=O)[C@H](C)NC(=O)[C@H](CCCCN)NC(=O)CNC(=O)[C@H](Cc2ccccc2)NC(=O)[C@H](CCCCN)NC(=O)[C@H](CCCCN)NC(=O)[C@H](CCCCN)NC(=O)[C@H](CO)NC(=O)[C@H](Cc2c[nH]cn2)NC(=O)[C@]2(C)CCCC=CCCC[C@](C)(NC(=O)CN)C(=O)NCC(=O)N[C@@H](CCCCN)C(=O)N[C@@H](Cc3ccccc3)C(=O)N2)CCCC=CCCC[C@@](C)(C(=O)N[C@@H](C)C(=O)N[C@@H](CCCCN)C(=O)N[C@@H](Cc2c[nH]c3ccccc23)C(N)=O)NC(=O)[C@H](CCC(=O)O)NC(=O)CNC1=O [compound 67] (H-G[S5]GKF[S5]HSKKKFGKA[S5]VGE[S5]AKW-NH2; staple 2-6, 16-20) | 16 µg/mL | 4 µg/mL | 16 µg/mL | 52 µg/mL (≈ 20.1 µM) | 4 µg/mL | 27 µg/mL (≈ 10.4 µM) | 8 µg/mL
3 | CC(C)[C@@H]1NC(=O)[C@@](C)(NC(=O)[C@H](C)NC(=O)[C@H](CCCCN)NC(=O)CNC(=O)[C@H](Cc2ccccc2)NC(=O)[C@H](CCCCN)NC(=O)[C@H](CCCCN)NC(=O)[C@H](CCCCN)NC(=O)[C@H](CCCCN)NC(=O)[C@H](CCCCN)NC(=O)[C@]2(C)CCCC=CCCC[C@](C)(NC(=O)CN)C(=O)NCC(=O)N[C@@H](CCCCN)C(=O)N[C@@H](Cc3ccccc3)C(=O)N2)CCCC=CCCC[C@@](C)(C(=O)N[C@@H](C)C(=O)N[C@@H](CCCCN)C(=O)N[C@@H](CCCCN)C(=O)NCC(=O)NCC(=O)N[C@@H](CCC(N)=O)C(N)=O)NC(=O)[C@H](CCC(=O)O)NC(=O)CNC1=O [compound 77] (H-G[S5]GKF[S5]KKKKKFGKA[S5]VGE[S5]AKKGGQ-NH2; staple 2-6, 16-20) | >64 µg/mL | 4 µg/mL | 4 µg/mL | > 200 µg/mL | 3 µg/mL | > 200 µg/mL | 16 µg/mL
4 | CC(C)[C@@H]1NC(=O)[C@@](C)(NC(=O)[C@H](C)NC(=O)[C@H](CCCCN)NC(=O)CNC(=O)[C@H](Cc2ccccc2)NC(=O)[C@H](CCCCN)NC(=O)[C@H](CCCCN)NC(=O)[C@H](CCCCN)NC(=O)[C@H](CCCCN)NC(=O)[C@H](Cc2c[nH]cn2)NC(=O)[C@]2(C)CCCC=CCCC[C@](C)(NC(=O)CN)C(=O)NCC(=O)N[C@@H](CO)C(=O)N[C@@H](Cc3ccccc3)C(=O)N2)CCCC=CCCC[C@@](C)(C(=O)N[C@@H](C)C(=O)N[C@@H](CCCCN)C(=O)N[C@@H](CCCCN)C(N)=O)NC(=O)[C@H](CCC(=O)O)NC(=O)CNC1=O [compound 5] (H-G[S5]GSF[S5]HKKKKFGKA[S5]VGE[S5]AKK-NH2; staple 2-6, 16-20) | >64 µg/mL | 4 µg/mL | 4 µg/mL | > 200 µg/mL | 4 µg/mL | > 200 µg/mL | >64 µg/mL
5 | CC(C)[C@@H]1NC(=O)[C@@](C)(NC(=O)[C@H](C)NC(=O)[C@H](CCCCN)NC(=O)CNC(=O)[C@H](Cc2ccccc2)NC(=O)[C@H](CCCCN)NC(=O)[C@H](CCCCN)NC(=O)[C@H](CCCCN)NC(=O)[C@H](CO)NC(=O)[C@H](Cc2c[nH]cn2)NC(=O)[C@]2(C)CCCC=CCCC[C@](C)(NC(=O)CN)C(=O)NCC(=O)N[C@@H](CCCCN)C(=O)N[C@@H](Cc3ccccc3)C(=O)N2)CCCC=CCCC[C@@](C)(C(=O)N[C@@H](C)C(=O)N[C@@H](CCCCN)C(=O)N[C@@H](CCCCN)C(N)=O)NC(=O)[C@H](CCC(=O)O)NC(=O)[C@H](Cc2ccccc2)NC1=O [compound 14] (H-G[S5]GKF[S5]HSKKKFGKA[S5]VFE[S5]AKK-NH2; staple 2-6, 16-20) | >64 µg/mL | 2 µg/mL | 4 µg/mL | 222 µg/mL (≈ 84.7 µM) | 2 µg/mL | 214 µg/mL (≈ 81.6 µM) | 4 µg/mL
6 | CC(C)[C@@H]1NC(=O)[C@@](C)(NC(=O)[C@H](C)NC(=O)[C@H](CCCCN)NC(=O)CNC(=O)[C@H](Cc2ccccc2)NC(=O)[C@H](CCCCN)NC(=O)[C@H](CCCCN)NC(=O)[C@H](CCCCN)NC(=O)[C@H](CO)NC(=O)[C@H](Cc2c[nH]cn2)NC(=O)[C@]2(C)CCCC=CCCC[C@](C)(NC(=O)CN)C(=O)NCC(=O)N[C@@H](CCCCN)C(=O)N[C@@H](Cc3ccccc3)C(=O)N2)CCCC=CCCC[C@@](C)(C(=O)N[C@@H](C)C(=O)N[C@@H](CCCCN)C(=O)N[C@@H](CCCCN)C(N)=O)NC(=O)[C@H](CCC(=O)O)NC(=O)[C@H]([C@@H](C)O)NC1=O [compound 15] (H-G[S5]GKF[S5]HSKKKFGKA[S5]VTE[S5]AKK-NH2; staple 2-6, 16-20) | >64 µg/mL | 6 µg/mL | 8 µg/mL | > 200 µg/mL | 2 µg/mL | > 200 µg/mL | 16 µg/mL
7 | CC(C)[C@@H]1NC(=O)[C@@](C)(NC(=O)[C@H](C)NC(=O)[C@H](CCCCN)NC(=O)CNC(=O)[C@H](Cc2ccccc2)NC(=O)[C@H](CCCCN)NC(=O)[C@H](CCCCN)NC(=O)[C@H](CCCCN)NC(=O)[C@H](CO)NC(=O)[C@H](Cc2c[nH]cn2)NC(=O)[C@]2(C)CCCC=CCCC[C@](C)(NC(=O)[C@@H](N)Cc3c[nH]c4ccccc34)C(=O)NCC(=O)N[C@@H](CCCCN)C(=O)N[C@@H](Cc3ccccc3)C(=O)N2)CCCC=CCCC[C@@](C)(C(=O)N[C@@H](C)C(=O)N[C@@H](CCCCN)C(=O)N[C@@H](CCCCN)C(N)=O)NC(=O)[C@H](CCC(=O)O)NC(=O)CNC1=O [compound 56] (H-W[S5]GKF[S5]HSKKKFGKA[S5]VGE[S5]AKK-NH2; staple 2-6, 16-20) | >64 µg/mL | 8 µg/mL | 16 µg/mL | 200 µg/mL (≈ 75.2 µM) | 4 µg/mL | 78 µg/mL (≈ 29.3 µM) | >64 µg/mL
8 | CC(C)[C@@H]1NC(=O)[C@@](C)(NC(=O)[C@H](C)NC(=O)[C@H](CCCCN)NC(=O)CNC(=O)[C@H](Cc2ccccc2)NC(=O)[C@H](CCCCN)NC(=O)[C@H](CCCCN)NC(=O)[C@H](CCCCN)NC(=O)[C@H](CCCCN)NC(=O)[C@H](CCCCN)NC(=O)[C@]2(C)CCCC=CCCC[C@](C)(NC(=O)CN)C(=O)NCC(=O)N[C@@H](CCCCN)C(=O)N[C@@H](Cc3ccccc3)C(=O)N2)CCCC=CCCC[C@@](C)(C(=O)N[C@@H](C)C(=O)N[C@@H](CCCCN)C(=O)N[C@@H](CCCCN)C(=O)NCC(=O)NCC(=O)N[C@@H](CCC(=O)O)C(N)=O)NC(=O)[C@H](CCC(=O)O)NC(=O)[C@H](Cc2ccc(C(C)(C)C)cc2)NC1=O [compound 36] (H-G[S5]GKF[S5]KKKKKFGKA[S5]V[Phe(4-tBu)]E[S5]AKKGGE-NH2; staple 2-6, 16-20) | 64 µg/mL | 2 µg/mL | 4 µg/mL | > 200 µg/mL | 2 µg/mL | 96 µg/mL (≈ 32.5 µM) | 2 µg/mL
